Molecular target: T1, EPAC1-CNBD (Homo sapiens, UniProt O95398)
T1 sequence (O95398 169-318 isoform O95398-3): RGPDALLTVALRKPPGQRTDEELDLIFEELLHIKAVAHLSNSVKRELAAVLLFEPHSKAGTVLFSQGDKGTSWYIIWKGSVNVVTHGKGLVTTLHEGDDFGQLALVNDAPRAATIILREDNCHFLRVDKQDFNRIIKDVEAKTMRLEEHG
Experiment: 8-NBD-cAMP competition binding assay, EPAC1-CNBD
Conditions: for EPAC1 binding potency / affinity in words: SAR comment on RFI, mostly relative to 3 or 9a; for RFI (%) (relative fluorescence intensity), Table 1 / RFI (%) (relative fluorescence intensity), Table 2: compound 10 µM, EPAC1-CNBD 0.8 µM, 8-NBD-cAMP 62.5 nM, mean ± SEM, lower RFI = stronger binding

For `Cc1cc(C)c(S(=O)(=O)NC(=O)COc2cccc3ccccc23)c(C)c1` [Compound 9b, N-(Mesitylsulfonyl)-2-(naphthalen-1-yloxy)acetamide], the “EPAC1 binding potency / affinity in words” value was “no significant improvement” and the “RFI (%) (relative fluorescence intensity), Table 1” value was 94 ± 5%.

In the case of `Cc1cc(C)c(S(=O)(=O)NC(=O)COc2ccc3cccnc3c2)c(C)c1` [Compound 9c, N-(Mesitylsulfonyl)-2-(quinolin-7-yloxy)acetamide], the “EPAC1 binding potency / affinity in words” value was “no significant improvement” and the “RFI (%) (relative fluorescence intensity), Table 1” value was 92 ± 2%.

For `CC(=O)c1c(OCC(=O)NS(=O)(=O)c2c(C)cc(C)cc2C)ccc2ccccc12` [Compound 9d, 2-((1-Acetylnaphthalen-2-yl)oxy)-N-(mesitylsulfonyl)acetamide], the “EPAC1 binding potency / affinity in words” value was “no significant improvement” and the “RFI (%) (relative fluorescence intensity), Table 1” value was 104 ± 7%.

For `COc1ccc2ccc(OCC(=O)NS(=O)(=O)c3c(C)cc(C)cc3C)cc2c1` [Compound 9e, N-(Mesitylsulfonyl)-2-((7-methoxynaphthalen-2-yl)oxy)acetamide], the “RFI (%) (relative fluorescence intensity), Table 1” value was 49 ± 3% and the “fold improvement in binding potency compared to 9a” value (from RFI at 10 µM) was “about 1.7 fold”.

`Cc1cc(C)c(S(=O)(=O)NC(=O)COc2ccc3c(c2)CCCC3)c(C)c1` [Compound 9f, N-(Mesitylsulfonyl)-2-((5,6,7,8-tetrahydronaphthalen-2-yl)oxy)acetamide] was tested, and the “EPAC1 binding potency / affinity in words” value was “slightly decreased binding potency” and the “RFI (%) (relative fluorescence intensity), Table 1” value was 77 ± 2%.

With `Cc1cc(C)c(S(=O)(=O)NC(=O)CNc2cccc(Cl)c2)c(C)c1` [Compound 9h, 2-((3-Chlorophenyl)amino)-N-(mesitylsulfonyl)acetamide] the “RFI (%) (relative fluorescence intensity), Table 1” value was 88 ± 9%.

For `Cc1cc(C)c(S(=O)(=O)NC(=O)CSc2nc3ccccc3c(=O)[nH]2)c(C)c1` [Compound 9i, N-(Mesitylsulfonyl)-2-((4-oxo-3,4-dihydroquinazolin-2-yl)thio)acetamide], the “RFI (%) (relative fluorescence intensity), Table 1” value was 95 ± 4%.

In the case of `Cc1cc(C)c(S(=O)(=O)NC(=O)CN2CCc3ccccc3C2)c(C)c1` [Compound 9j, 2-(3,4-Dihydroisoquinolin-2(1H)-yl)-N-(mesitylsulfonyl)acetamide], the “RFI (%) (relative fluorescence intensity), Table 1” value was 102 ± 1%.

`COc1cc2c(cc1OC)CN(CC(=O)NS(=O)(=O)c1c(C)cc(C)cc1C)CC2` [Compound 9k, 2-(6,7-Dimethoxy-3,4-dihydroisoquinolin-2(1H)-yl)-N-(mesitylsulfonyl)acetamide] was tested, and the “RFI (%) (relative fluorescence intensity), Table 1” value was 102 ± 5%.

With `Cc1cc(C)c(S(=O)(=O)NC(=O)CN2CCn3c(nnc3C(F)(F)F)C2)c(C)c1` [Compound 9l, N-(Mesitylsulfonyl)-2-(3-(trifluoromethyl)-5,6-dihydro-[1,2,4]triazolo[4,3-a]pyrazin-7(8H)-yl)acetamide] the “RFI (%) (relative fluorescence intensity), Table 1” value was 104 ± 2%.

For `Cc1cc(C)c(S(=O)(=O)NC(=O)CN2CCN(c3ccccn3)CC2)c(C)c1` [Compound 9m, N-(Mesitylsulfonyl)-2-(4-(pyridin-2-yl)piperazin-1-yl)acetamide], the “RFI (%) (relative fluorescence intensity), Table 1” value was 119 ± 8%.

In the case of `Cc1ccc(S(=O)(=O)NC(=O)COc2ccc3cc(Cl)ccc3c2)c(C)c1` [Compound 9n, 2-((6-Chloronaphthalen-2-yl)oxy)-N-((2,4-dimethylphenyl)sulfonyl)acetamide], the “RFI (%) (relative fluorescence intensity), Table 2” value was 50 ± 2%.

In the case of `Cc1ccc(S(=O)(=O)NC(=O)COc2ccc3cc(F)ccc3c2)c(C)c1` [Compound 9o, 2-((6-Fluoronaphthalen-2-yl)oxy)-N-((2,4-dimethylphenyl)sulfonyl)acetamide], the “RFI (%) (relative fluorescence intensity), Table 2” value was 55 ± 1%.

With `Cc1ccc(S(=O)(=O)NC(=O)COc2ccc3ccc(Cl)cc3c2)c(C)c1` [Compound 9p, 2-((7-Chloronaphthalen-2-yl)oxy)-N-((2,4-dimethylphenyl)sulfonyl)acetamide] the “RFI (%) (relative fluorescence intensity), Table 2” value was 66 ± 2%.

In the case of `Cc1ccc(S(=O)(=O)NC(=O)COc2cccc3ccccc23)c(C)c1` [Compound 9q, N-((2,4-dimethylphenyl)sulfonyl)-2-(naphthalen-1-yloxy)acetamide], the “RFI (%) (relative fluorescence intensity), Table 2” value was 71 ± 1%.
